From the OligoGym collection
Bases are written 5' to 3'; sugars and linkages follow in the same order, as letters with counts (s phosphorothioate, o phosphodiester; PS: all linkages phosphorothioate). The collection does not say whether C is 5-methylated. l = locked nucleic acid (LNA); d = 2'-deoxy (DNA)

Biological target: Tau
Test: rat primary cortical neurons, FLIPR, 25 uM ASO

| Sequence | calcium oscillation score |
| --- | --- |
| TTATTTCCAAATTCACTTTT (sugars lldllddddddddddldlll, PS) | 81 % of control |
| TTATTTCCAAATTCACTTTT (sugars lldllddddddddddlldll, PS) | 121 % of control |
| TTATTTCCAAATTCACTTTT (sugars lllddldddddddddldlll, PS) | 108 % of control |
| TTATTTCCAAATTCACTTTT (sugars lllddldddddddddlldll, PS) | 114 % of control |
| TTATTTCCAAATTCACTTTT (sugars llldlddddddddddldlll, PS) | 116 % of control |
| TTATTTCCAAATTCACTTTT (sugars llldldddddddddllddll, PS) | 110 % of control |
| TTATTTCCAAATTCACTTTT (sugars lllldddddddddlddldll, PS) | 96.5 % of control |
| TTATTTCCAAATTCACTTTT (sugars lllldddddddddldlddll, PS) | 102 % of control |
| TTCACACAACAAACTATTAT (sugars l4 d12 l4, PS) | 70.7 % of control |
| TTCACCCCAAGACACAA (sugars l3 d11 l3, PS) | 59 % of control |
| TTCACTTAGTAACCAA (sugars l4 d8 l4, PS) | 62 % of control |
| TTCAGGTCTGGCATGG (sugars l3 d10 l3, PS) | 1.9 % of control |
| TTCATCACCAAGTCCC (sugars l3 d11 l2, PS) | 51.4 % of control |
| TTCATCACCAAGTCCCA (sugars l3 d12 l2, PS) | 66.8 % of control |
| TTCATCTACTTTTCAGCT (sugars l4 d12 l2, PS) | 47.2 % of control |
| TTCATGTTAAATCCCTC (sugars l4 d10 l3, PS) | 103 % of control |
| TTCCACATTTTACAGTA (sugars l3 d10 l4, PS) | 76.6 % of control |
| TTCCACTACAAGCTCCA (sugars l3 d12 l2, PS) | 53.9 % of control |
| TTCCACTACAAGCTCCAC (sugars l3 d13 l2, PS) | 52 % of control |
| TTCCAGTCCCGTCTTT (sugars l3 d10 l3, PS) | 73.1 % of control |
| TTCCATCACTTCGAACTCCT (sugars l3 d14 l3, PS) | 13.6 % of control |
| TTCCATCCTAAGTCAACC (sugars l3 d13 l2, PS) | 70.6 % of control |

| Sequence | calcium oscillation score |
| --- | --- |
| TTCCATCTTACTAATAG (sugars l4 d9 l4, PS) | 49.2 % of control |
| TTCCCAAATTCCTCATAATC (sugars l3 d15 l2, PS) | 69.1 % of control |
| TTCCCACAATTCCTACA (sugars l3 d12 l2, PS) | 73.4 % of control |
| TTCCCTTAATTTCACC (sugars l3 d10 l3, PS) | 127 % of control |
| TTCCTAATTCCCAAATTCC (sugars l3 d14 l2, PS) | 62.1 % of control |
| TTCCTCAGAAGGCATT (sugars l3 d10 l3, PS) | 36.9 % of control |
| TTCCTGCAAATTCTCAA (sugars l4 d10 l3, PS) | 61.7 % of control |
| TTCCTGGACCACCTTA (sugars l3 d10 l3, PS) | 59.3 % of control |
| TTCCTGGCCATCTTATGCTG (sugars l3 d14 l3, PS) | 22 % of control |
| TTCCTTTCAATGACCAA (sugars l3 d10 l4, PS) | 56.6 % of control |
| TTCGAAACCAAGGTCCCACC (sugars l3 d14 l3, PS) | 27.5 % of control |
| TTCTAATTTAGTCACCA (sugars l3 d10 l4, PS) | 65.9 % of control |
| TTCTAGTTATACAGTTGGCC (sugars l3 d14 l3, PS) | 26.2 % of control |
| TTCTCAAGTCTCTTTAA (sugars l3 d11 l3, PS) | 70.7 % of control |
| TTCTCACCAAACCCAGA (sugars l3 d12 l2, PS) | 57.8 % of control |
| TTCTCAGCACACCATTA (sugars l3 d12 l2, PS) | 60.1 % of control |
| TTCTCGCGGAAGGTCA (sugars l3 d10 l3, PS) | 0 % of control |
| TTCTCTAATTGTCCAAT (sugars l4 d9 l4, PS) | 64 % of control |
| TTCTCTCTTAACTTTATTTT (sugars l4 d12 l4, PS) | 93 % of control |
| TTCTGAATTCCTATCAT (sugars l4 d10 l3, PS) | 40.1 % of control |
| TTCTTAGAGGACTGCAACGC (sugars l3 d14 l3, PS) | 23.9 % of control |
| TTCTTCATTCTTGCCC (sugars l2 d12 l2, PS) | 15.5 % of control |

| Sequence | calcium oscillation score |
| --- | --- |
| TTCTTCCATCCTAAGTCA (sugars l3 d13 l2, PS) | 51.7 % of control |
| TTCTTCCTTTGTAATTC (sugars l4 d11 l2, PS) | 43.5 % of control |
| TTCTTCCTTTGTAATTCC (sugars l3 d13 l2, PS) | 39.6 % of control |
| TTCTTGTGATGCAGGA (sugars l3 d10 l3, PS) | 61.3 % of control |
| TTCTTGTTCTAACCCCA (sugars l3 d12 l2, PS) | 68.1 % of control |
| TTCTTTTTTTTTCCACACTC (sugars l3 d15 l2, PS) | 27.4 % of control |
| TTGAAGTCAAGCTTCTCAGA (sugars l3 d14 l3, PS) | 0 % of control |
| TTGAAGTCCCGAGC (sugars l3 d8 l3, PS) | 0 % of control |
| TTGAAGTCCCGAGCC (sugars l3 d9 l3, PS) | 0 % of control |
| TTGAAGTCCCGAGCCA (sugars l3 d10 l3, PS) | 2.38 % of control |
| TTGAAGTCCCGAGCCAAAGC (sugars l3 d14 l3, PS) | 0 % of control |
| TTGAGTTGAGGGACCC (sugars l3 d10 l3, PS) | 0 % of control |
| TTGATAAAACATCCCT (sugars l4 d8 l4, PS) | 65 % of control |
| TTGATACCCTTCCTCA (sugars l3 d10 l3, PS) | 14.3 % of control |
| TTGCAACTTTAACTCCA (sugars l4 d11 l2, PS) | 80.8 % of control |
| TTGCCTAATGAGCCACACTT (sugars l3 d14 l3, PS) | 36.5 % of control |
| TTGCTCAGGTCAACTG (sugars l3 d10 l3, PS) | 42.9 % of control |
| TTGCTTTTCCCAATTAT (sugars l4 d11 l2, PS) | 54.5 % of control |
| TTGGAAAGATGAAATTTGCT (sugars l3 d14 l3, PS) | 1.45 % of control |
| TTGGAGCCTACATAGA (sugars l3 d10 l3, PS) | 0 % of control |
| TTGGAGTGCTCTTAGCATCA (sugars l3 d14 l3, PS) | 7.78 % of control |
| TTGGATCAGAGGGTCT (sugars l3 d10 l3, PS) | 11.1 % of control |

| Sequence | calcium oscillation score |
| --- | --- |
| TTGGCGTTCTCGCGGA (sugars l3 d10 l3, PS) | 0 % of control |
| TTGGCTTTGGCGTT (sugars l3 d8 l3, PS) | 96.2 % of control |
| TTGGCTTTGGCGTTCT (sugars l3 d10 l3, PS) | 74.5 % of control |
| TTGGGTGGAGTACGGA (sugars l3 d10 l3, PS) | 0 % of control |
| TTGGGTGGAGTACGGACCAC (sugars l3 d14 l3, PS) | 0 % of control |
| TTGTACACGATCTCCG (sugars l3 d10 l3, PS) | 55.2 % of control |
| TTGTAGACTATTTG (sugars l3 d8 l3, PS) | 63.3 % of control |
| TTGTAGACTATTTGCACACT (sugars l3 d14 l3, PS) | 40.7 % of control |
| TTGTCCAGGGACCCAATCTT (sugars l3 d14 l3, PS) | 3.32 % of control |
| TTGTGATGCAGGAG (sugars l3 d8 l3, PS) | 0 % of control |
| TTTAACTCAAATCAATTCT (sugars l4 d11 l4, PS) | 72.6 % of control |
| TTTAACTCAAATCAATTCTC (sugars l4 d12 l4, PS) | 65.7 % of control |
| TTTAATTCACACAACAAACT (sugars l4 d12 l4, PS) | 89.1 % of control |
| TTTACAAAGTCCACTTT (sugars l4 d9 l4, PS) | 53 % of control |
| TTTACACCACACTGTC (sugars l3 d10 l3, PS) | 83.3 % of control |
| TTTACCAATTTGCCTAA (sugars l4 d9 l4, PS) | 43.1 % of control |
| TTTACCCATCTTAATTCATT (sugars l4 d14 l2, PS) | 78.1 % of control |
| TTTAGCAGAGGAACGT (sugars l3 d10 l3, PS) | 15.6 % of control |
| TTTAGTTTTCCCACCCAA (sugars l2 d13 l3, PS) | 69.4 % of control |
| TTTATAGGTGCATAGT (sugars l2 d10 l4, PS) | 0 % of control |
| TTTATCCCTCCATGATT (sugars l2 d12 l3, PS) | 58.8 % of control |
| TTTATGATGGATGTTGCCTA (sugars l3 d14 l3, PS) | 6.64 % of control |

| Sequence | calcium oscillation score |
| --- | --- |
| TTTATTAATTCATAAATGAC (sugars l3 d14 l3, PS) | 46.3 % of control |
| TTTATTTCCAAATTCACTTT (sugars l1 d17 l2, PS) | 163 % of control |
| TTTATTTCCAAATTCACTTT (sugars l2 d16 l2, PS) | 141 % of control |
| TTTATTTCCAAATTCACTTT (sugars l3 d14 l3, PS) | ≥ 200 % of control |
| TTTATTTCCAAATTCACTTT (sugars l4 d11 l5, PS) | 138 % of control |
| TTTATTTCCAAATTCACTTT (sugars l5 d10 l5, PS) | ≥ 200 % of control |
| TTTATTTCCAAATTCACTTT (sugars l5 d11 l4, PS) | 115 % of control |
| TTTATTTCCAAATTCACTTT (sugars ldlllddddddddddlldll, PS) | 83.1 % of control |
| TTTATTTCCAAATTCACTTT (sugars lldllddddddddddlldll, PS) | 106 % of control |
| TTTCAACTCTTAGCAT (sugars l4 d8 l4, PS) | 70.8 % of control |
| TTTCAACTCTTAGCATC (sugars l4 d9 l4, PS) | 70.8 % of control |
| TTTCAACTCTTAGCATCC (sugars l2 d12 l4, PS) | 52.5 % of control |
| TTTCATCTACTTTTCAGC (sugars l4 d12 l2, PS) | 39.4 % of control |
| TTTCATGTTAAATCCCT (sugars l4 d10 l3, PS) | 94.2 % of control |
| TTTCCCCATTTATCCTT (sugars l4 d11 l2, PS) | 87.4 % of control |
| TTTCCCCATTTATCCTTC (sugars l2 d14 l2, PS) | 49.4 % of control |
| TTTCCTGCAAATTCTCA (sugars l4 d10 l3, PS) | 66.8 % of control |
| TTTCTCAATGTAACCTC (sugars l3 d10 l4, PS) | 71.6 % of control |
| TTTCTCTAATTGTCCAA (sugars l4 d9 l4, PS) | 56.6 % of control |
